Laboratory results reported in US11021470B2, “2-substituted quinazoline compounds comprising a substituted heterocyclic group and methods of use thereof” (Araxes Pharma LLC, priority 2015, dated 2021).

What follows are molecules tested against T1, KRAS G12C 1-169, his-tagged protein, GDP-loaded (Homo sapiens, UniProt P01116, G12C) (assay: KRAS G12C covalent binding (% modification) by mass spectrometry, ten or three minute incubation). Details: covalent binding to KRAS G12C after a ten minute incubation period.
T1 construct: KRAS G12C 1-169, his-tagged protein, GDP-loaded
In short: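 GDP-loaded protein in 20 mM Hepes, 150 mM NaCl, 1 mM MgCl2 was incubated with compound (final 100, 30 or 10 μM; 2% DMSO) at room temperature, then quenched with formic acid. Intact-protein LC-MS with charge-envelope deconvolution gave masses and intensities of modified and unmodified species.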

Row | SMILES | Binding %
1 | C=CC(=O)N1C[C@@H](C)N(c2nc(N3CC(N(C)C)C3)nc3c(F)c(-c4c(O)cccc4F)c(Cl)cc23)C[C@@H]1C [Compound 81, 1-((2S,5R)-4-(6-chloro-2-(3-(dimethylamino)azetidin-1-yl)-8-fluoro-7-(2-fluoro-6-hydroxyphenyl)quinazolin-4-yl)-2,5-dimethylpiperazin-1-yl)prop-2-en-1-one] | + (+ indicates binding activity greater than 0% and up to 50%)
2 | C=CC(=O)N1C[C@H](C)N(c2nc(OCCN(CC)CC)nc3c(F)c(-c4c(O)cccc4F)c(Cl)cc23)C[C@H]1C [Compound 48, 1-((2R,5S)-4-(6-chloro-2-(2-(diethylamino)ethoxy)-8-fluoro-7-(2-fluoro-6-hydroxyphenyl)quinazolin-4-yl)-2,5-dimethylpiperazin-1-yl)prop-2-en-1-one] | ++ (++ indicates binding activity from 50 to 90%)
3 | C=CC(=O)N1C[C@@H](C)N(c2nc(N3CC(N(C)C)C3)nc3c(F)c(-c4c(O)cccc4F)c(Cl)cc23)C[C@H]1C [Compound 80, 1-((2R,5R)-4-(6-chloro-2-(3-(dimethylamino)azetidin-1-yl)-8-fluoro-7-(2-fluoro-6-hydroxyphenyl)quinazolin-4-yl)-2,5-dimethylpiperazin-1-yl)prop-2-en-1-one] | + (+ indicates binding activity greater than 0% and up to 50%)

Same assay, conditions: covalent binding to KRAS G12C, % modification after a three minute incubation period

Row | SMILES | Binding %
4 | C=CC(=O)N1C[C@H](C)N(c2nc(OCCn3ccnc3C#N)nc3c(F)c(-c4c(C)ccc5[nH]ncc45)c(Cl)cc23)C[C@H]1C [Compound 279, 1-(2-((4-((2S,5R)-4-acryloyl-2,5-dimethylpiperazin-1-yl)-6-chloro-8-fluoro-7-(5-methyl-1H-indazol-4-yl)quinazolin-2-yl)oxy)ethyl)-1H-imidazole-2-carbonitrile] | ++ (++ indicates binding activity from 50 to 90%)
5 | C=CC(=O)N1C[C@H](C)N(c2nc(N3CC(N(C)C)C3)nc3c(F)c(-c4c(O)cccc4F)c(Cl)cc23)C[C@@H]1C [Compound 94, 1-((2S,5S)-4-(6-chloro-2-(3-(dimethylamino)azetidin-1-yl)-8-fluoro-7-(2-fluoro-6-hydroxyphenyl)quinazolin-4-yl)-2,5-dimethylpiperazin-1-yl)prop-2-en-1-one] | + (+ indicates binding activity greater than 0% and up to 50%)
6 | C=CC(=O)N1C[C@H](C)N(c2nc(N3CC(N(C)C)C3)nc3c(F)c(-c4c(O)cccc4F)c(C(F)(F)F)cc23)C[C@H]1C [Compound 206, 1-((2R,5S)-4-(2-(3-(dimethylamino)azetidin-1-yl)-8-fluoro-7-(2-fluoro-6-hydroxyphenyl)-6-(trifluoromethyl)quinazolin-4-yl)-2,5-dimethylpiperazin-1-yl)prop-2-en-1-one] | +++ (+++ indicates binding activity greater than 90%)
7 | C=CC(=O)N1C[C@H](C)N(c2nc(N3CC(N(C)CCCCCN=[N+]=[N-])C3)nc3c(F)c(-c4c(O)cccc4F)c(Cl)cc23)C[C@H]1C [Compound 301, 1-((2R,5S)-4-(2-(3-((5-azidopentyl)(methyl)amino)azetidin-1-yl)-6-chloro-8-fluoro-7-(2-fluoro-6-hydroxyphenyl)quinazolin-4-yl)-2,5-dimethylpiperazin-1-yl)prop-2-en-1-one] | ++ (++ indicates binding activity from 50 to 90%)
8 | C=CC(=O)N1C[C@H](C)N(c2nc(N3CC(N(C)C)C3)nc3c(F)c(-c4c(C)ccc5c(C)n[nH]c45)c(Cl)cc23)C[C@H]1C [Compound 246, 1-((2R,5S)-4-(6-chloro-7-(3,6-dimethyl-1H-indazol-7-yl)-2-(3-(dimethylamino)azetidin-1-yl)-8-fluoroquinazolin-4-yl)-2,5-dimethylpiperazin-1-yl)prop-2-en-1-one] | + (+ indicates binding activity greater than 0% and up to 50%)
9 | C=CC(=O)N1C[C@H](C)N(c2nc(OCCn3ccc4cccnc43)nc3c(F)c(-c4c(O)cccc4F)c(Cl)cc23)C[C@H]1C [Compound 263, 1-((2R,5S)-4-(2-(2-(1H-pyrrolo[2,3-b]pyridin-1-yl)ethoxy)-6-chloro-8-fluoro-7-(2-fluoro-6-hydroxyphenyl)quinazolin-4-yl)-2,5-dimethylpiperazin-1-yl)prop-2-en-1-one] | + (+ indicates binding activity greater than 0% and up to 50%)
10 | C=CC(=O)N1C[C@H](C)N(c2nc(OCCCN3CC(F)(F)C3)nc3c(F)c(-c4cc(O)cc5ccccc45)c(Cl)cc23)C[C@H]1C [Compound 247, 1-((2R,5S)-4-(6-chloro-2-(3-(3,3-difluoroazetidin-1-yl)propoxy)-8-fluoro-7-(3-hydroxynaphthalen-1-yl)quinazolin-4-yl)-2,5-dimethylpiperazin-1-yl)prop-2-en-1-one] | + (+ indicates binding activity greater than 0% and up to 50%)
11 | C=CC(=O)N1C[C@@H](C)N(c2nc(N3CC(N(C)C)C3)nc3c(F)c(-c4c(O)cccc4F)c(Cl)cc23)C[C@H]1C [Compound 86, 1-((2R,5R)-4-(6-chloro-2-(3-(dimethylamino)azetidin-1-yl)-8-fluoro-7-(2-fluoro-6-hydroxyphenyl)quinazolin-4-yl)-2,5-dimethylpiperazin-1-yl)prop-2-en-1-one] | + (+ indicates binding activity greater than 0% and up to 50%)
12 | C=CC(=O)N1C[C@H](C)N(c2nc(N3CC(N(C)C)C3)nc3c(F)c(-c4c(C)ccc5[nH]nc(C)c45)c(Cl)cc23)C[C@H]1C [Compound 252, 1-((2R,5S)-4-(6-chloro-7-(3,5-dimethyl-1H-indazol-4-yl)-2-(3-(dimethylamino)azetidin-1-yl)-8-fluoroquinazolin-4-yl)-2,5-dimethylpiperazin-1-yl)prop-2-en-1-one] | +++ (+++ indicates binding activity greater than 90%)
13 | [2H]C([2H])([2H])N(C1CN(c2nc(N3C[C@@H](C)N(C(=O)C=C)C[C@@H]3C)c3cc(Cl)c(-c4c(O)cccc4F)c(F)c3n2)C1)C([2H])([2H])[2H] [Compound 196, 1-((2R,5S)-4-(2-(3-(bis(trideuteromethyl)amino)azetidin-1-yl)-6-chloro-8-fluoro-7-(2-fluoro-6-hydroxyphenyl)quinazolin-4-yl)-2,5-dimethylpiperazin-1-yl)prop-2-en-1-one] | +++ (+++ indicates binding activity greater than 90%)
14 | C=CC(=O)N1C[C@H](C)N(c2nc(N3CC(N(C)C)C3)nc3c(F)c(-c4c(C)ccc5[nH]nc(N)c45)c(Cl)cc23)C[C@H]1C [Compound 298, 1-((2R,5S)-4-(7-(3-amino-5-methyl-1H-indazol-4-yl)-6-chloro-2-(3-(dimethylamino)azetidin-1-yl)-8-fluoroquinazolin-4-yl)-2,5-dimethylpiperazin-1-yl)prop-2-en-1-one] | ++ (++ indicates binding activity from 50 to 90%)
15 | C=CC(=O)N1C[C@H](C)N(c2nc(N3CC(N(C)C)C3)nc3c(F)c(-c4cc(O)cc5ccccc45)c(C(F)(F)F)cc23)C[C@H]1C [Compound 178, 1-((2R,5S)-4-(2-(3-(dimethylamino)azetidin-1-yl)-8-fluoro-7-(3-hydroxynaphthalen-1-yl)-6-(trifluoromethyl)quinazolin-4-yl)-2,5-dimethylpiperazin-1-yl)prop-2-en-1-one] | +++ (+++ indicates binding activity greater than 90%)
